Data on one compound can be found in patent US20060166989A1, “2-naphthamide derivatives” (Bayer Healthcare AG, priority 2002, published 2006).

Each structure is given as a SMILES string.

The melting point is the temperature of the solid-liquid transition.

Data set [1] addresses T1, IP receptor (Homo sapiens, UniProt P43119).
T1 construct: HEL cells were collected with centrifugation and washed with cAMP assay buffer; host or cells: HEL 92.1.7 human erythroleukemia cells
As to the kind of experiment: Iloprost-induced cAMP production assay in HEL cells (Assay 2). It is filed as cell-based. The following applies: read-out: Activity grade assay 2. Here is the method: [Iloprost-Induced cAMP Production Assay in HEL Cells] (Assay 2)
HEL cells were collected with centrifugation and washed with cAMP assay buffer (CAB: Hank's balanced salt solution, 17 mM Hepes, 0.1% bovine serum albumin, 1 mM IBMX, 0.4% DMSO, and 1 mM L-ascorbic acid sodium salt (pH 7.4)). Cells were suspended at the density of 2.5×10^5 cells/ml in CAB, and twenty thousand cells in 80 μl aliquot of cell suspension were put in a well of 96 well plate (Falcon). Then, 10 μl of compound solution diluted with 1% DMSO in CAB or buffer alone was added. The plate was incubated at 37° C. for 30 min. Then, another 10 μl containing 100 nM iloprost in CAB or buffer alone was added and further incubated at 37° C. for 30 min. cAMP content in the well was measured by a cAMP ELISA kit (Applied Biosystems, USA).
Results of Iloprost-induced cAMP production assay (Assay2) are shown in Examples and tables of the Examples below. For practical reasons, the compounds are grouped in three classes of activity as follows: A(=or<)0.1μM<B(=or<)1μM<C
In general terms: Changes in cAMP serve as a functional read-out for many G protein-coupled receptors.

T1 sequence (P43119 whole entry): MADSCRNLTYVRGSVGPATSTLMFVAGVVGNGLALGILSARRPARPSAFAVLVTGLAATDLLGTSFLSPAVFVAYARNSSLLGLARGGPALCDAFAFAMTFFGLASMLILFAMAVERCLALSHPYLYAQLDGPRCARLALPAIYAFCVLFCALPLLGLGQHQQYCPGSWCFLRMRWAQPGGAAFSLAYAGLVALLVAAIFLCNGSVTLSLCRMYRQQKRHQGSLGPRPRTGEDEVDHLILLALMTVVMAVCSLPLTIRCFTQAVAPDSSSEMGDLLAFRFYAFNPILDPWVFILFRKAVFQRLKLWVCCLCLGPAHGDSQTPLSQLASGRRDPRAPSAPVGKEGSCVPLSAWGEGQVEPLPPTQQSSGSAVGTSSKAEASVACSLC

`O=C(N[C@@H](Cc1ccccc1)C(=O)O)c1ccc2cc(NCc3ccccc3)ccc2c1` [Example 4-1, N-[6-(benzylamino)-2-naphthoyl]phenylalanine] returned a melting point of 172 °C. In addition, the IC50 in data set [1] fell in the range of 100 to 1000 nM.
